Read-outs that look alike come from different tables or passages of the source.
Experiments:
Assay in all cases: Test A postemergence
Type in all cases: in vivo
[1] = tested on: giant foxtail (Setaria faberii); conditions: Setaria faberi, post-emergence, 240 h; for pest or weed control at 125 g/ha: 125 g ai/ha, read-out: Foxtail, Giant plant response rating (0 to 100 scale); for pest or weed control at 500 g/ha: 500 g ai/ha, visual injury, 0 to 100 scale (0 no effect, 100 complete control), approx. 10 d, read-out: Plant response rating, Foxtail, Giant
Procedure, shortened: (§1)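 In a loam soil and sand blend, planted seeds got a preemergence directed soil spray, and young plants at the one- to two-leaf stage, 2–10 cm high, got a postemergence application; ~10 d greenhouse hold; injury rated visually, 0 = none, 100 = complete control.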

corn (Zea mays) = conditions: Zea mays, post-emergence, 240 h; for plant injury at 125 g/ha: 125 g ai/ha, read-out: Corn plant response rating (0 to 100 scale); for Corn plant response rating (crop injury, 0 = no effect, 100 = complete kill) at 500 g/ha: 500 g ai/ha, visual injury, 0 to 100 scale (0 no effect, 100 complete control), approx. 10 d
Procedure, shortened: as §1

[2] = tested on: pigweed (Amaranthus retroflexus); conditions: Amaranthus retroflexus, post-emergence, 240 h; for pest or weed control at 125 g/ha: 125 g ai/ha, read-out: Pigweed plant response rating (0 to 100 scale); for pest or weed control at 500 g/ha: 500 g ai/ha, visual injury, 0 to 100 scale (0 no effect, 100 complete control), approx. 10 d, read-out: Plant response rating, Pigweed
Procedure, shortened: as §1

[3] = tested on: Galium (catchweed bedstraw, Galium aparine); conditions: Galium, post-emergence, 240 h; for pest or weed control at 125 g/ha: 125 g ai/ha, read-out: Galium plant response rating (0 to 100 scale); for pest or weed control at 500 g/ha: 500 g ai/ha, visual injury, 0 to 100 scale (0 no effect, 100 complete control), approx. 10 d, read-out: Plant response rating, Galium
Procedure, shortened: as §1

[4] = tested on: barnyardgrass (Echinochloa crus-galli); conditions: Echinochloa crus-galli, post-emergence, 240 h; for pest or weed control at 125 g/ha: 125 g ai/ha; for pest or weed control at 500 g/ha: 500 g ai/ha, visual injury, 0 to 100 scale (0 no effect, 100 complete control), approx. 10 d, read-out: Plant response rating, Barnyardgrass
Procedure, shortened: as §1

[5] = postemergence, visual injury vs untreated controls after approx. 10 d, 0 = no effect, 100 = complete control
[6] = Postemergence, visual rating about 10 d after treatment
[7] = Postemergence, visual rating about 10 d after treatment, read-out: Barnyardgrass plant response rating (0 to 100 scale, 0 no effect, 100 complete control)

SMILES	pest or weed control at 125 g/ha [1, 5]	pest or weed control at 500 g/ha ([1]; Postemergence)	plant injury at 125 g/ha (corn (Zea mays); [5])	Corn plant response rating (crop injury, 0 = no effect, 100 = complete kill) at 500 g/ha (corn (Zea mays); Postemergence)	pest or weed control at 125 g/ha [2, 5]	pest or weed control at 500 g/ha ([2]; Postemergence)	pest or weed control at 125 g/ha [3, 5]	pest or weed control at 500 g/ha ([3]; Postemergence)	pest or weed control at 125 g/ha ([4]; postemergence, visual injury vs untreated controls after approx. 10 d, 0 = no effect, 100 = complete control, read-out: Barnyardgrass plant response rating (0 to 100 scale))	pest or weed control at 500 g/ha ([4]; Postemergence)	pest or weed control at 125 g/ha [1, 6]	plant injury at 125 g/ha (corn (Zea mays); [6])	pest or weed control at 125 g/ha [2, 6]	pest or weed control at 125 g/ha [3, 6]	pest or weed control at 125 g/ha [4, 7]
CN1C[C@H](c2ccc(C(F)(F)F)cc2)[C@@H](C(=O)Nc2ccccc2)C1=O [Compound 1253]	80%	90%	0%	70%	0%	30%	50%	60%	90%	100%	–	–	–	–	–
Cc1nc([C@H]2CN(C)C(=O)[C@@H]2C(=O)Nc2ccccc2F)cs1 [Compound 1280]	–	30%	–	0%	–	0%	–	0%	–	40%	0%	0%	0%	0%	0%
COc1cc([C@H]2CN(C)C(=O)[C@@H]2C(=O)Nc2ccccc2S(C)(=O)=O)ccc1F [Compound 1302]	–	80%	–	0%	–	0%	–	30%	–	90%	30%	0%	0%	0%	60%
CSc1ccccc1NC(=O)[C@H]1C(=O)NC[C@@H]1c1cc(C)cc(F)c1 [Compound 1306]	–	20%	–	0%	–	0%	–	40%	–	90%	0%	0%	0%	20%	20%
Cc1cc(F)cc([C@H]2CNC(=O)[C@@H]2C(=O)Nc2ccccc2S(C)(=O)=O)c1 [Compound 1307]	–	20%	–	0%	–	0%	–	40%	–	90%	0%	0%	0%	30%	40%
Cc1cc(F)cc([C@H]2CNC(=O)[C@@H]2C(=O)Nc2cccc(F)c2C)c1 [Compound 1308]	–	80%	–	80%	–	0%	–	50%	–	80%	20%	20%	0%	30%	80%

Reference: patent US12077503B2, “Substituted cyclic amides and their use as herbicides” (FMC CORPORATION, priority 2015, dated 2024)
